Reference: a melting point compilation (Tetko et al.; mined from patent text by program, amines drawn as free bases though some values may be those of a salt)

Question: With `COc1ccnc2c1cc(C)n2Cc1ccccc1` as the molecule, how does the melting point read?
Answer: 129 to 131 °C

Question: Which melting point does the source give for `O=[N+]([O-])c1oc2ccc(CBr)cc2c1-c1ccccc1` here?
Answer: 171 to 180 °C

Question: Which melting point does the source give for `CCc1ncnc(N[C@H]2CC[C@@H](C(C)(C)O)CC2)c1Cl` here?
Answer: 75 to 76 °C

Question: Which melting point does the source give for `CC[C@H](O)C(=O)N1CCC(Oc2cc3ncnc(Nc4cccc(Cl)c4F)c3cc2OC)CC1` here?
Answer: 152 to 153 °C

Question: Which melting point does the source give for `OCc1cnn2ccc3c(c12)CCO3` here?
Answer: 152 to 154 °C

Question: With `O[C@@H](CNCCOc1ccc2oc(-c3ccon3)cc2c1)COc1ccccc1F` as the molecule, how does the melting point read?
Answer: 109 to 110 °C

Question: With `CS(=O)(=O)c1cc(Cl)c2[nH]cc(CC(N)C(=O)O)c2c1` (configuration not stated) as the molecule, how does the melting point read?
Answer: 292 to 294 °C

Question: For `CC(C)(C)OC(=O)N[C@@H](CC(=O)OCc1ccccc1)C(=O)NCCc1ccc(OCC(=O)OCc2ccccc2)cc1`, which melting point is on record?
Answer: 178 to 180 °C

Question: With `COc1ccc(C(CC(N)=O)N2C(=O)c3ccccc3C2=O)cc1` (configuration not stated) as the molecule, how does the melting point read?
Answer: 183 to 188 °C

Question: For `O=C(O)c1cccc(C(=O)c2cc(Cl)cc(C(=O)c3ccccc3O)c2O)c1O`, which melting point is on record?
Answer: 127 to 130 °C

Question: Which melting point does the source give for `Fc1ccc(N=Cc2ccccc2)c(F)c1` here?
Answer: 51 to 52 °C

Question: For `CC(C)(C)OC(=O)NCCCCCNC1(c2ccccc2Cl)C(=O)Nc2ccc(Cl)cc21` (configuration not stated), which melting point is on record?
Answer: 185 °C

Question: Which melting point does the source give for `O=C(NCC1Cc2cccc(-c3ccc(F)cc3F)c2O1)OCc1ccccc1` (configuration not stated) here?
Answer: 78 to 80 °C

Question: For `O=C(Nc1ccc(C(=O)N2Cc3ccccc3Cc3ccccc32)cc1)c1c(Cl)cccc1Cl`, which melting point is on record?
Answer: 257 to 259 °C

Question: With `Ic1cnc(-c2ccccn2)[nH]1` as the molecule, how does the melting point read?
Answer: 175 to 179 °C

Question: With `CC(CCCNC(=O)CCCCCBr)C(F)(F)F` (configuration not stated) as the molecule, how does the melting point read?
Answer: 96 to 98 °C

Question: For `Clc1cc(Cl)c2oc(Cl)nc2c1`, which melting point is on record?
Answer: 140 to 142 °C

Question: With `CC(=O)NCCNc1nc(-c2ccccc2)nc2[nH]c(COc3ccccc3)cc12` as the molecule, how does the melting point read?
Answer: 196 to 197 °C

Question: With `COC(=O)c1ccc(Cl)cc1NC(=O)Cc1ccsc1` as the molecule, how does the melting point read?
Answer: 96 to 97 °C

Question: With `O=C(O)c1ncn2c1[C@@H]1CCCN1C(=O)c1cc(Cl)ccc1-2` as the molecule, how does the melting point read?
Answer: 227 °C

Question: For `O=C(O)Cn1cccc(NC(=O)OCc2ccccc2)c1=O`, which melting point is on record?
Answer: 171 to 173 °C

Question: With `CCOC(=O)c1cnc2c(SCc3ccccc3)cccn2c1=O` as the molecule, how does the melting point read?
Answer: 165 to 167 °C

Question: Which melting point does the source give for `O=C(O)c1ccc(COCc2csc3nc(C(=O)NCc4cccc(Cl)c4)[nH]c(=O)c23)cc1` here?
Answer: 236 to 238 °C

Question: With `CC(=O)n1cc(Cl)c(-c2cccc(C(F)(F)F)c2)c1` as the molecule, how does the melting point read?
Answer: 70 to 71.5 °C

Question: Which melting point does the source give for `CCN(CC)CC(=C1NCCCS1)[N+](=O)[O-]` here?
Answer: 68 to 69 °C

Question: Which melting point does the source give for `O=C1OC(c2ccccc2)C2CCc3cc(O)ccc3N12` (configuration not stated) here?
Answer: 216 °C

Question: With `CNC(=O)c1ccc2ccccc2c1` as the molecule, how does the melting point read?
Answer: 108 to 109 °C

Question: With `CCCC1C(O)=CC(=O)N1c1ccc(C#N)c(Cl)c1` (configuration not stated) as the molecule, how does the melting point read?
Answer: 156 to 158 °C

Question: For `O=C(O)CCCC(=O)CCCc1ccccc1CCCC(=O)O`, which melting point is on record?
Answer: 87 °C

Question: Which melting point does the source give for `COc1cc2c(cc1OC)/C(=C\c1ccc(OCC(=O)OC(C)(C)C)cc1)C(=O)N2` here?
Answer: 158 to 160 °C

Question: With `CCCNCCc1ccc(NS(=O)(=O)c2ccc(OC(F)(F)F)cc2)cc1` as the molecule, how does the melting point read?
Answer: 151 to 154 °C

Question: For `COc1ccc(S(=O)(=O)N2c3cc(F)ccc3-c3ccc(F)cc3C2C)c(OC)c1` (configuration not stated), which melting point is on record?
Answer: 112 to 115 °C

Question: For `CC(C)(C)OC(=O)N1CCc2ccc(Nc3nc4c(-c5cc(C(F)(F)F)ccc5Cl)cccn4n3)cc2CC1`, which melting point is on record?
Answer: 88 to 89 °C

Question: Which melting point does the source give for `CCNC(=O)c1ccc(N2CCN(Cc3cnc4c(c3)NC(=O)C3CCCCN43)CC2)cc1` (configuration not stated) here?
Answer: 233 °C

Question: For `CC(C)(C)c1ccc(O[C@@H]2CCC[C@H]2O)c(C(C)(C)C)c1` (relative stereo), which melting point is on record?
Answer: 112 °C

Question: For `NC(=O)NC1COCC1c1ccccc1-n1nc(C(F)(F)F)cc1C(F)(F)F` (configuration not stated), which melting point is on record?
Answer: 198 to 200 °C

Question: Which melting point does the source give for `N#Cc1cc([N+](=O)[O-])ccc1N1CCC(OC(=O)c2ccccc2)CC1` here?
Answer: 143 to 145 °C

Question: For `N#Cc1c(-c2ccccc2)[nH]c(=O)c2cccnc12`, which melting point is on record?
Answer: 292 to 295 °C

Question: Which melting point does the source give for `COc1ccc2c(c1)C(C(Cl)(Cl)Cl)OC(C(Cl)(Cl)Cl)O2` (configuration not stated) here?
Answer: 105 to 107 °C

Question: Which melting point does the source give for `CCn1cc(C(=O)O)c(=O)cc1-c1ccc(N(C)C)c(C)c1` here?
Answer: 160 to 162 °C

Question: Which melting point does the source give for `Cn1cc(Cl)c2cccc(C(=O)c3ccccc3)c21` here?
Answer: 73 to 74.5 °C

Question: For `Cc1ccc(C(=O)NC(NC(=S)Nc2ccccc2C)C(F)(F)F)cc1` (configuration not stated), which melting point is on record?
Answer: 210 to 211 °C

Question: For `Cc1ccc(C(=O)CCc2ccc(N3CCN(c4ccncc4)CC3)cc2)cc1`, which melting point is on record?
Answer: 114 to 115 °C

Question: With `Cn1cncc1C(O)(c1ccc(C=NO)cc1)c1ccc2[nH]c(=O)cc(-c3cccc(Cl)c3)c2c1` (configuration not stated) as the molecule, how does the melting point read?
Answer: 230 °C

Question: With `NS(=O)(=O)c1ccc(-n2nc(C(F)F)cc2-c2ccc(Cl)cc2)cc1` as the molecule, how does the melting point read?
Answer: 185 to 186 °C

Question: Which melting point does the source give for `CC#CCOc1ccc(S(=O)(=O)N(Cc2cccnc2)C2(C(=O)NO)CCCCC2)cc1` here?
Answer: 179 to 181 °C

Question: Which melting point does the source give for `COc1ccc(Cc2nc3c(c(OC)nn3C(C)CCCc3ccccc3)c(=O)[nH]2)cc1OC` (configuration not stated) here?
Answer: 148 °C

Question: With `O=C1C2=C(C(=O)N1CCO)c1ccccc1CC2` as the molecule, how does the melting point read?
Answer: 120 to 121 °C

Question: For `CC(C)(C)OC(=O)OC(=O)c1ccc(NNC(N)=S)cc1`, which melting point is on record?
Answer: 161 to 163 °C

Question: Which melting point does the source give for `COC(=O)C1=C(SCc2ccc(OC)cc2)C2=C(CC=CC=C2)CC1` here?
Answer: 79 to 81 °C

Question: For `O=C(O)C1CCc2c(n(C(=O)c3ccccc3)c3ccc(Cl)cc23)C1` (configuration not stated), which melting point is on record?
Answer: 196 to 197 °C

Question: Which melting point does the source give for `CCOC(=O)C1=C(C)NC(=NC#N)N(C(=O)OCC)C1c1cccc([N+](=O)[O-])c1` (configuration not stated) here?
Answer: 174 to 175 °C

Question: For `CNc1nc(S(=O)(=O)Nc2c(F)cccc2F)nn1-c1ccccc1`, which melting point is on record?
Answer: 180 to 181 °C

Question: With `O=C1CC=C2N1CCN1C(=O)C[C@H]3CCCC[C@]231` (relative stereo) as the molecule, how does the melting point read?
Answer: 105 to 125 °C

Question: With `CC(C)C(=O)NCCO` as the molecule, how does the melting point read?
Answer: 54 to 57 °C

Question: Which melting point does the source give for `COc1cc(C(=O)N(C(C)C)C2CCCCC2)ccc1Cn1c(CN(C)C)nc2cccnc21` here?
Answer: 124 to 125 °C

Question: Which melting point does the source give for `N#CSCSc1nc(Cl)c(Cl)nc1Cl` here?
Answer: 90 to 93 °C

Question: With `Cc1nc2c3c(c(CO)cc2n1C)CCC1(Cc2ccccc2C1)N3` as the molecule, how does the melting point read?
Answer: 272 to 274 °C

Question: Which melting point does the source give for `O=C(NCc1cccs1)Nc1cc(N2CC(c3ccccc3)CC2=O)ccn1` (configuration not stated) here?
Answer: 179 to 180 °C

Question: For `O=C1COC2CCCc3nc4ccccc4c(c32)N1` (configuration not stated), which melting point is on record?
Answer: 173 to 175 °C

Question: With `CCOC(=O)COC(c1cccc(-c2nnc(Nc3ccc(Cl)c(Cl)c3)s2)c1)c1cccc(C(F)(F)F)c1` (configuration not stated) as the molecule, how does the melting point read?
Answer: 135 to 136 °C

Question: Which melting point does the source give for `COc1ccc2[nH]c(=O)c(=O)n(C)c2c1` here?
Answer: 310 °C

Question: Which melting point does the source give for `COC(C)(C)C(=O)Nc1ccc(Sc2nc(C)cc(C)n2)cc1` here?
Answer: 123 to 125 °C

Question: For `Cc1ccsc1C=C1CCc2cc(OCCc3c[nH]cn3)ccc2C1=O`, which melting point is on record?
Answer: 191 to 193 °C

Question: For `CCn1cc(C(N)=O)c(=O)c2ccc(-c3ccncc3)cc21`, which melting point is on record?
Answer: > 300 °C

Question: For `CCCCCCCCCCCCCCCCC(NC(C)=O)(C(=O)OCC)C(=O)OCC`, which melting point is on record?
Answer: 65 to 67 °C

Question: For `COc1ccc(-n2nc(C(C)(C)C)cc2NC(=O)c2nccc3cc(Oc4cc(NC(C)=O)ncn4)ccc23)cc1`, which melting point is on record?
Answer: 156 °C

Question: With `O=c1c2cnccc2n(-c2cccc(Cl)c2)c2ncccc12` as the molecule, how does the melting point read?
Answer: 222 to 224 °C

Question: With `CS(=O)(=O)Nc1cc(OC[C@@H](O)CNC2CCN(c3ccc(C#N)cc3)CC2)ccc1O` as the molecule, how does the melting point read?
Answer: 78 to 80 °C

Question: With `Cc1c(-c2ccccc2)oc2c(C(=O)OCCN3CCCCC3)cccc2c1=O` as the molecule, how does the melting point read?
Answer: 85 to 86 °C

Question: Which melting point does the source give for `CCc1cc(C)cc(CC)c1CO` here?
Answer: 71 to 72 °C

Question: Which melting point does the source give for `CN1Cc2c(C(=O)OC(C)(C)C)ncn2-c2ccccc2C1=O` here?
Answer: 216 to 217 °C
